The source of these data is paper PMC5218480 (PLoS ONE, 2017).

The subject of the assay is MV-4-11 cells. Briefly: Gene expression microarray analysis (Affymetrix PrimeView) and GSEA. The class given is cell-based, human. The arrangement: RFU PODN (11730768_x_at) / Fold change /veh PODN (11730768_x_at) / RFU LINC00158 (11744669_a_at) / Fold change /veh LINC00158 (11744669_a_at) / RFU DUSP10 (11751237_a_at) / Fold change /veh DUSP10 (11751237_a_at) / RFU ID3 (11757404_x_at) / Fold change /veh ID3 (11757404_x_at) / RFU PLEKHG5 (11737974_s_at) / Fold change /veh PLEKHG5 (11737974_s_at) / RFU LRRC4B (11730491_at) / Fold change /veh LRRC4B (11730491_at) / RFU GIMAP4 (11747438_a_at) / Fold change /veh GIMAP4 (11747438_a_at) / RFU KRT8 (11758183_x_at) / Fold change /veh KRT8 (11758183_x_at) / RFU CNN1 (11734310_a_at) / Fold change /veh CNN1 (11734310_a_at) / RFU VPS37D (11726825_at) / Fold change /veh VPS37D (11726825_at) / RFU C10orf10 (11716522_x_at) / Fold change /veh C10orf10 (11716522_x_at) / RFU KIR2DL2 /// KIR2DL4 /// KIR2DL5A /// KIR2DL5B /// KIR2DS1 /// KIR2DS2 /// KIR2DS3 /// KIR2DS4 /// KIR3DL3 /// KIR3DL3 /// KIR3DS1 (11738374_at) / Fold change /veh KIR2DL2 /// KIR2DL4 /// KIR2DL5A /// KIR2DL5B /// KIR2DS1 /// KIR2DS2 /// KIR2DS3 /// KIR2DS4 /// KIR3DL3 /// KIR3DL3 /// KIR3DS1 (11738374_at) / RFU C1QL1 (11718748_at) / Fold change /veh C1QL1 (11718748_at) / RFU TMPRSS4 (11747572_a_at) / Fold change /veh TMPRSS4 (11747572_a_at) / RFU HAMP (11756126_x_at) / Fold change /veh HAMP (11756126_x_at) / RFU RNFT2 (11725882_a_at) / Fold change /veh RNFT2 (11725882_a_at) / RFU NR4A2 (11747474_a_at) / Fold change /veh NR4A2 (11747474_a_at) / RFU ABCC12 (11746883_a_at) / Fold change /veh ABCC12 (11746883_a_at) / RFU TMEM136 (11760407_x_at) / Fold change /veh TMEM136 (11760407_x_at) / RFU CLDN22 /// WWC2 (11732394_at) / Fold change /veh CLDN22 /// WWC2 (11732394_at) / RFU HLA-DPB1 (11760878_x_at) / Fold change /veh HLA-DPB1 (11760878_x_at) / RFU SPINT1 (11716480_a_at) / Fold change /veh SPINT1 (11716480_a_at) / RFU GAP43 (11754022_s_at) / Fold change /veh GAP43 (11754022_s_at) / RFU A4GNT (11735810_at) / Fold change /veh A4GNT (11735810_at) / RFU PRB3 (11715151_x_at) / Fold change /veh PRB3 (11715151_x_at) / RFU TUBB4B (11761932_at) / Fold change /veh TUBB4B (11761932_at) / RFU CAPN14 (11732068_a_at) / Fold change /veh CAPN14 (11732068_a_at) / RFU TMCC2 (11721928_a_at) / Fold change /veh TMCC2 (11721928_a_at) / RFU IRGQ (11745062_a_at) / Fold change /veh IRGQ (11745062_a_at) / RFU FAM174B (11720279_a_at) / Fold change /veh FAM174B (11720279_a_at) / RFU TMPRSS4 (11748680_a_at) / Fold change /veh TMPRSS4 (11748680_a_at) / RFU FAM212B (11763350_a_at) / Fold change /veh FAM212B (11763350_a_at) / RFU PLEKHG5 (11743358_a_at) / Fold change /veh PLEKHG5 (11743358_a_at) / RFU ZSCAN30 (11745921_a_at) / Fold change /veh ZSCAN30 (11745921_a_at) / RFU CMKLR1 (11741424_a_at) / Fold change /veh CMKLR1 (11741424_a_at) / RFU LOC101060620 /// MAPK8IP1 (11723275_at) / Fold change /veh LOC101060620 /// MAPK8IP1 (11723275_at) / RFU SPTSSB (11747773_x_at) / Fold change /veh SPTSSB (11747773_x_at) / RFU PRSS12 (11739890_at) / Fold change /veh PRSS12 (11739890_at) / RFU BIN1 (11741810_x_at) / Fold change /veh BIN1 (11741810_x_at) / RFU WNT11 (11732464_a_at) / Fold change /veh WNT11 (11732464_a_at) / RFU C10orf10 (11716521_a_at) / Fold change /veh C10orf10 (11716521_a_at) / RFU C5orf56 (11738089_at) / Fold change /veh C5orf56 (11738089_at) / RFU CYB561 (11721691_x_at) / Fold change /veh CYB561 (11721691_x_at) / RFU ANKRD19P (11752326_a_at) / Fold change /veh ANKRD19P (11752326_a_at) / RFU OR2T12 /// OR2T33 /// OR2T8 (11738714_s_at) / Fold change /veh OR2T12 /// OR2T33 /// OR2T8 (11738714_s_at) / RFU VCAN (11748164_a_at) / Fold change /veh VCAN (11748164_a_at) / RFU JSRP1 (11732532_at) / Fold change /veh JSRP1 (11732532_at) / RFU KRTAP10-11 (11738290_x_at) / Fold change /veh KRTAP10-11 (11738290_x_at) / RFU MYO3A (11730013_a_at) / Fold change /veh MYO3A (11730013_a_at) / RFU EBF3 (11725865_a_at) / Fold change /veh EBF3 (11725865_a_at) / RFU CAMK2N1 (11719241_x_at) / Fold change /veh CAMK2N1 (11719241_x_at) / RFU C5orf56 (11738088_a_at) / Fold change /veh C5orf56 (11738088_a_at) / RFU OLFML3 (11715873_a_at) / Fold change /veh OLFML3 (11715873_a_at) / RFU LOC100653217 /// NTM (11731650_a_at) / Fold change /veh LOC100653217 /// NTM (11731650_a_at) / RFU MAPK11 (11762145_a_at) / Fold change /veh MAPK11 (11762145_a_at) / RFU FIZ1 (11724087_x_at) / Fold change /veh FIZ1 (11724087_x_at) / RFU OASL (11726364_x_at) / Fold change /veh OASL (11726364_x_at) / RFU SOX15 (11748057_x_at) / Fold change /veh SOX15 (11748057_x_at) / RFU CD79A (11719716_a_at) / Fold change /veh CD79A (11719716_a_at) / RFU HIST1H1D (11736915_at) / Fold change /veh HIST1H1D (11736915_at) / RFU CASKIN2 (11723855_a_at) / Fold change /veh CASKIN2 (11723855_a_at) / RFU LOC730098 (11760151_x_at) / Fold change /veh LOC730098 (11760151_x_at) / RFU OR4N2 (11742367_at) / Fold change /veh OR4N2 (11742367_at) / RFU PRRT2 (11749266_a_at) / Fold change /veh PRRT2 (11749266_a_at) / RFU SNX32 (11753110_a_at) / Fold change /veh SNX32 (11753110_a_at) / RFU CDHR5 (11726645_a_at) / Fold change /veh CDHR5 (11726645_a_at) / RFU RCAN1 (11760418_a_at) / Fold change /veh RCAN1 (11760418_a_at) / RFU FAM167A (11723789_a_at) / Fold change /veh FAM167A (11723789_a_at) / RFU FAM26E (11764081_at) / Fold change /veh FAM26E (11764081_at) / RFU ISYNA1 (11749810_s_at) / Fold change /veh ISYNA1 (11749810_s_at) / RFU ACY1 (11761880_at) / Fold change /veh ACY1 (11761880_at) / RFU 11764098_at / Fold change /veh 11764098_at / RFU SAMD14 (11745864_x_at) / Fold change /veh SAMD14 (11745864_x_at) / RFU NPB (11741838_a_at) / Fold change /veh NPB (11741838_a_at) / RFU TMPRSS6 (11731388_a_at) / Fold change /veh TMPRSS6 (11731388_a_at) / RFU KRTAP10-2 (11738614_at) / Fold change /veh KRTAP10-2 (11738614_at) / RFU ARHGAP8 /// PRR5-ARHGAP8 (11727945_x_at) / Fold change /veh ARHGAP8 /// PRR5-ARHGAP8 (11727945_x_at) / RFU KRTAP5-7 /// NADSYN1 (11734609_at) / Fold change /veh KRTAP5-7 /// NADSYN1 (11734609_at) / RFU RASL12 (11751679_a_at) / Fold change /veh RASL12 (11751679_a_at) / RFU CDKN2B (11736163_a_at) / Fold change /veh CDKN2B (11736163_a_at) / RFU PRF1 (11729649_at) / Fold change /veh PRF1 (11729649_at) / RFU, ZNF638 /// ZNF638-IT1 / Fold change vs veh, ZNF638 /// ZNF638-IT1 / RFU, PANK3 / Fold change vs veh, PANK3 / RFU, SH3YL1 / Fold change vs veh, SH3YL1 / RFU, ZEB2 / Fold change vs veh, ZEB2 / RFU, NRIP1 / Fold change vs veh, NRIP1 / RFU, PTTG1IP / Fold change vs veh, PTTG1IP / RFU, CAPN2 / Fold change vs veh, CAPN2 / RFU, MED14 / Fold change vs veh, MED14 / RFU, SNORA58 / Fold change vs veh, SNORA58 / RFU, C1orf63 / Fold change vs veh, C1orf63 / RFU, LRRFIP1 / Fold change vs veh, LRRFIP1 / RFU, NDUFAF7 / Fold change vs veh, NDUFAF7 / RFU, SLC12A2 / Fold change vs veh, SLC12A2 / RFU, IBTK / Fold change vs veh, IBTK / RFU, ESF1 / Fold change vs veh, ESF1 / Fold change vs veh, TMEM50B / RFU, TAOK1 / Fold change vs veh, TAOK1 / RFU, ACBD3 / Fold change vs veh, ACBD3 / RFU, TMA16 / Fold change vs veh, TMA16 / RFU, RWDD3 / Fold change vs veh, RWDD3 / RFU, BCAT1 / Fold change vs veh, BCAT1 / RFU, EDEM3 / Fold change vs veh, EDEM3 / RFU, TMEM33 / Fold change vs veh, TMEM33 / RFU, WDR75 / Fold change vs veh, WDR75 / RFU, AHCTF1 / Fold change vs veh, AHCTF1 / RFU, TFRC / Fold change vs veh, TFRC / RFU, ZDHHC17 / Fold change vs veh, ZDHHC17 / RFU, NOM1 / Fold change vs veh, NOM1 / RFU, ARL8B / Fold change vs veh, ARL8B / RFU, ZBTB11 / Fold change vs veh, ZBTB11 / RFU, TAMM41 / Fold change vs veh, TAMM41 / RFU, KIAA1704 /// LOC100996395 / Fold change vs veh, KIAA1704 /// LOC100996395 / RFU, ING1 / Fold change vs veh, ING1 / RFU, TRMT61B / Fold change vs veh, TRMT61B / RFU, FUBP3 / Fold change vs veh, FUBP3 / RFU, TP53 / Fold change vs veh, TP53 / RFU, TNKS2 / Fold change vs veh, TNKS2 / RFU, ZFP14 / Fold change vs veh, ZFP14 / RFU, ACTR2 / Fold change vs veh, ACTR2 / RFU, PPP3R1 / Fold change vs veh, PPP3R1 / RFU, PIK3R1 / Fold change vs veh, PIK3R1 / RFU, HNRNPA1 / Fold change vs veh, HNRNPA1 / RFU, RNF170 / Fold change vs veh, RNF170 / RFU, ZNF28 / Fold change vs veh, ZNF28 / RFU, RNGTT / Fold change vs veh, RNGTT / RFU, OGT / Fold change vs veh, OGT / RFU, BRD1 / Fold change vs veh, BRD1 / RFU, MARS / Fold change vs veh, MARS / RFU, ZNF655 / Fold change vs veh, ZNF655 / RFU, FAHD1 / Fold change vs veh, FAHD1 / RFU, BDP1 / Fold change vs veh, BDP1 / RFU, LRRCC1 / Fold change vs veh, LRRCC1 / RFU, ARID1A / Fold change vs veh, ARID1A / RFU, ZNF146 / Fold change vs veh, ZNF146 / RFU, ZNF330 / Fold change vs veh, ZNF330 / RFU, GPN3 / Fold change vs veh, GPN3 / RFU, C9orf123 / Fold change vs veh, C9orf123 / RFU, N4BP2L2 / Fold change vs veh, N4BP2L2 / RFU, ARFIP1 / Fold change vs veh, ARFIP1 / RFU, FAM179B / Fold change vs veh, FAM179B / RFU, BCL10 / Fold change vs veh, BCL10 / RFU, UHRF1BP1L / Fold change vs veh, UHRF1BP1L / RFU, BET1 / Fold change vs veh, BET1 / RFU, CNOT2 / Fold change vs veh, CNOT2 / RFU, ZNF268 / Fold change vs veh, ZNF268 / Fold change vs veh, ZNF507 / RFU, DGCR2 / Fold change vs veh, DGCR2 / RFU, WDSUB1 / Fold change vs veh, WDSUB1 / Fold change vs veh, HSP90B1 /// MIR3652 / RFU, ADSS / Fold change vs veh, ADSS / RFU, GK / Fold change vs veh, GK / RFU, ZNF148 / Fold change vs veh, ZNF148 / RFU, TAF9 / Fold change vs veh, TAF9 / RFU, SLC1A5 / Fold change vs veh, SLC1A5 / RFU, SLMO2 / Fold change vs veh, SLMO2 / RFU, ABCC4 / Fold change vs veh, ABCC4 / RFU, LOC101060439 /// RAP1B / Fold change vs veh, LOC101060439 /// RAP1B / RFU, RFX7 / Fold change vs veh, RFX7 / RFU, GTPBP10 / Fold change vs veh, GTPBP10 / RFU, CNEP1R1 / Fold change vs veh, CNEP1R1 / RFU, BIVM-ERCC5 /// ERCC5 / Fold change vs veh, BIVM-ERCC5 /// ERCC5 / RFU, ILF3 / Fold change vs veh, ILF3 / RFU 11762660_at / Fold change /veh 11762660_at / RFU VCAN (11757783_s_at) / Fold change /veh VCAN (11757783_s_at) / RFU DDX43 (11728927_at) / Fold change /veh DDX43 (11728927_at) / RFU KRT8 (11758188_x_at) / Fold change /veh KRT8 (11758188_x_at) / RFU NKD1 (11759106_at) / Fold change /veh NKD1 (11759106_at) / RFU SRD5A1 (11742802_a_at) / Fold change /veh SRD5A1 (11742802_a_at) / RFU TPSAB1 /// TPSB2 (11721975_s_at) / Fold change /veh TPSAB1 /// TPSB2 (11721975_s_at) / RFU GSTM3 (11746129_a_at) / Fold change /veh GSTM3 (11746129_a_at) / RFU IL23R (11737362_x_at) / Fold change /veh IL23R (11737362_x_at) / RFU TMEM51 (11727254_a_at) / Fold change /veh TMEM51 (11727254_a_at) / RFU PIWIL2 (11732686_x_at) / Fold change /veh PIWIL2 (11732686_x_at) / RFU ORM1 (11744905_x_at) / Fold change /veh ORM1 (11744905_x_at) / RFU CCDC152 (11743942_at) / Fold change /veh CCDC152 (11743942_at) / RFU ECM1 (11717891_a_at) / Fold change /veh ECM1 (11717891_a_at) / RFU IL23R (11748794_a_at) / Fold change /veh IL23R (11748794_a_at) / RFU TNFAIP8L3 (11732012_x_at) / Fold change /veh TNFAIP8L3 (11732012_x_at) / RFU MBOAT4 (11741988_at) / Fold change /veh MBOAT4 (11741988_at) / RFU 11764193_at / Fold change /veh 11764193_at / RFU TMEM53 (11763286_at) / Fold change /veh TMEM53 (11763286_at) / RFU MAGEB2 (11727129_at) / Fold change /veh MAGEB2 (11727129_at) / RFU TMEM200A (11744735_a_at) / Fold change /veh TMEM200A (11744735_a_at) / RFU CCDC152 (11751479_a_at) / Fold change /veh CCDC152 (11751479_a_at) / RFU FAM211A (11726209_a_at) / Fold change /veh FAM211A (11726209_a_at) / RFU RGS16 (11746705_a_at) / Fold change /veh RGS16 (11746705_a_at) / RFU VCAN (11755009_s_at) / Fold change /veh VCAN (11755009_s_at) / RFU RHOB (11743442_s_at) / Fold change /veh RHOB (11743442_s_at) / RFU RGS16 (11720943_a_at) / Fold change /veh RGS16 (11720943_a_at) / RFU RGS16 (11720944_at) / Fold change /veh RGS16 (11720944_at) / RFU, VPS4B / Fold change vs veh, VPS4B / RFU, CREB1 / Fold change vs veh, CREB1 / RFU, DNAJC13 / Fold change vs veh, DNAJC13 / RFU, GNAQ / Fold change vs veh, GNAQ / RFU, CDK5R1 / Fold change vs veh, CDK5R1 / RFU, ZRANB3 / Fold change vs veh, ZRANB3 / RFU, CUL4A / Fold change vs veh, CUL4A / RFU, CCNY / Fold change vs veh, CCNY / RFU, UFL1 / Fold change vs veh, UFL1 / RFU, COG3 / Fold change vs veh, COG3 / RFU, DIAPH2 / Fold change vs veh, DIAPH2 / RFU, SKA2 / Fold change vs veh, SKA2 / RFU, AFF3 / Fold change vs veh, AFF3 / RFU, LMF1 / Fold change vs veh, LMF1 / RFU, IPO11 / Fold change vs veh, IPO11 / RFU, DFFB / Fold change vs veh, DFFB / RFU, FOXP1 / Fold change vs veh, FOXP1 / RFU, CARD8 / Fold change vs veh, CARD8 / RFU, STRN3 / Fold change vs veh, STRN3 / RFU, ADK / Fold change vs veh, ADK / RFU, RASSF2 / Fold change vs veh, RASSF2 / RFU, WIPF1 / Fold change vs veh, WIPF1 / RFU, LARP1B / Fold change vs veh, LARP1B / RFU, RASA1 / Fold change vs veh, RASA1 / RFU, RB1 / Fold change vs veh, RB1 / RFU, PPFIA1 / Fold change vs veh, PPFIA1 / RFU, MAT2A / Fold change vs veh, MAT2A / RFU, CCT5 / Fold change vs veh, CCT5 / RFU, WDR92 / Fold change vs veh, WDR92 / RFU, CUX1 / Fold change vs veh, CUX1 / RFU, TTC7A / Fold change vs veh, TTC7A / RFU, TMEM135 / Fold change vs veh, TMEM135 / RFU, DEPTOR / Fold change vs veh, DEPTOR / RFU, CPM / Fold change vs veh, CPM / RFU, DNAJB6 / Fold change vs veh, DNAJB6 / RFU, CACNA2D3 / Fold change vs veh, CACNA2D3 / RFU, DTX4 / Fold change vs veh, DTX4 / RFU, TFCP2 / Fold change vs veh, TFCP2 / RFU, GMCL1 /// GMCL1P1 / Fold change vs veh, GMCL1 /// GMCL1P1 / RFU, AEBP2 / Fold change vs veh, AEBP2 / RFU, SNHG1 /// SNORD22 /// SNORD25 /// SNORD26 /// SNORD27 /// SNORD28 /// SNORD29 /// SNORD31 / Fold change vs veh, SNHG1 /// SNORD22 /// SNORD25 /// SNORD26 /// SNORD27 /// SNORD28 /// SNORD29 /// SNORD31 / Fold change (Aza/veh), C12orf56 (ProbeSet 11735607_a_at) / Fold change (ACY-1035/veh), C12orf56 (ProbeSet 11735607_a_at) / Fold change (Aza/veh), FGFR1OP (ProbeSet 11751329_s_at) / Fold change (ACY-1035/veh), FGFR1OP (ProbeSet 11751329_s_at) / Fold change (Aza/veh), VPS36 (ProbeSet 11739960_a_at) / Fold change (ACY-1035/veh), VPS36 (ProbeSet 11739960_a_at) / RFU SYPL1 (11715823_x_at) / Fold change /veh SYPL1 (11715823_x_at) / RFU IGFBP7 (11715501_s_at) / Fold change /veh IGFBP7 (11715501_s_at) / RFU REEP3 (11722064_at) / Fold change /veh REEP3 (11722064_at) / RFU IGLL1 (11728026_x_at) / Fold change /veh IGLL1 (11728026_x_at): dose or concentration left out as unconfirmed. The conditions noted are these: ProbeSet 11725787_a_at; LIST B.

`Nc1ccc(-c2cccs2)cc1NC(=O)c1ccc2c(c1)cc(C1CC1)n2CCN1CCOCC1` [ACY-1035]: the “RFU, TMA16” value is on record as 138.28 RFU.
